# Measurements from patent US10590440B2, “Process for producing a fermentation product from a lignocellulose-containing material” (CysBio ApS, priority 2014, dated 2020).
# Key:
# Type in all cases: cell-based, Escherichia coli
# E. coli MG1655 = experiment: Toxicity of unsulfated or sulfated product: growth rate of E. coli MG1655 (Example 3, FIG. 5); conditions: M9 0.2% glucose, pH 7, 37° C.; pHCA 10-40 mM, zosteric acid 20 or 40 mM
# Text: All media preparations had been adjusted to pH 7. […] Filled squares represent growth rates in media with pHCA.
# E. coli BL21(DE3)pLysS = experiment: Cell density of E. coli in media with ferulic acid, strain without SULT1A1 (Example 4); conditions: after 17 h at 37° C., inoculated at OD600 0.002
# Description: (§1) The two strains BL21(DE3)pLysS and the strain carrying SULT1A1 were grown in M9 minimal media with 0.2% glucose, appropriate antibiotics for maintenance of the plasmids, and 0.1 mM IPTG for induction of expression of the sulfotransferase. We added ferulic acid to final concentration of either 2.5 mM or 5 mM (ferulic acid was dissolved in ethanol, which reached a final concentration of 2% in the media). Ferulic acid is a growth inhibitory compound found in lignocellulotic biomass hydrolysate. Cells were inoculated into the medium to an optical density at 600 nm (OD600) of 0.002 in a 1 cm light path. […] Presence of an aryl sulfotransferase removes the inhibition caused by ferulic acid.
# [1] = tested on: E. coli BL21(DE3)pLysS carrying SULT1A1; experiment: Cell density of E. coli in media with ferulic acid, strain carrying SULT1A1 Homo sapiens (Example 4); conditions: after 17 h at 37° C., inoculated at OD600 0.002
# Text: SULT1A1 from Homo sapiens (SEQ ID NO: 2) mentioned in example 1 was cloned into the plasmid vector pET-28a(+) (Novagen, Life Technologies) as follows: The gene encoding the SULT1A1 was codon optimized for expression in E. coli by GeneArt (LifeTechnologies) and synthesized such that the start codon is an Ncol restriction site. The stop codon is immediately followed by a SalI site. The Ncol and SalI fragment of this DNA piece was cloned into the pET-28a(+) digested with Ncol and SalI using T4 DNA ligase. The resulting plasmid was transformed into E. coli BL21(DE3)pLysS (Life Technologies) selecting for resistance to […] kanamycin.
# as §1
SMILES,Toxicity to the cells (growth rates in exponential growth phase) (E. coli MG1655),Optical density at 600 nm (E. coli BL21(DE3)pLysS; 2.5 mM ferulic acid),Optical density at 600 nm (E. coli BL21(DE3)pLysS; 5 mM ferulic acid),Optical density at 600 nm ([1]; 2.5 mM ferulic acid),Optical density at 600 nm ([1]; 5 mM ferulic acid)
O=C(O)/C=C/c1ccc(OS(=O)(=O)O)cc1 [zosteric acid],much less so,–,–,–,–
COc1cc(/C=C/C(=O)O)ccc1O [ferulic acid],–,0.680,0.370,1.410,1.340
"O=C(O)/C=C/c1ccc(O)cc1 [pHCA, p-coumaric acid]",toxic to the cells,–,–,–,–
